Results published in US8299296B2, “Spiro compounds and pharmaceutical use thereof” (Japan Tobacco Inc., priority 2007, dated 2012).
Counter-ions that a name gives are not always drawn.

Biological target: T1, human GPR40 (Homo sapiens, UniProt O14842)
T1 construct: expressed in transfected cells
Test: Ca2+ mobilization (FLIPR) in a stable GPR40-expressing cell; GPR40 agonist activity
Type: cell-based
Settings: compound concentration corresponding to 50% PosiC, 100% = intracellular calcium level induced by 80 μM palmitic acid
Method: Evaluation of effect of test compounds on Ca^2+ mobilization by using a stable GPR40-expressing cell A stable human GPR40-expressing HEK293 cell was used. A cell suspension was prepared such that the above-mentioned cells were present at 6×10^5 cells/mL in a cell culture medium (D-MEM (Nikken Bio Medical Laboratory) supplemented with 10% (v/v) fetal bovine serum (Biowest) and 1% (v/v) penicillin-streptomycin solution (Invitrogen)). The cell suspension was plated in a 384-well plate (poly-D-lysine coated plate; Falcon) in a volume of 25 μl/well, and the plate was incubated at 37° C. in an atmosphere of 5% CO2 overnight. Each test compound was added to the cell at each concentration as below, and then the change in intracellular calcium level was measured by FLIPR^TETRA (Molecular Devices). Before the FLIPR assay, the following preparative solutions were prepared. First, an assay buffer was prepared for use in the preparation of a fluorescent dye solution and a diluent buffer solution. The assay buffer was prepared by adding 1M HEPES solution (Invitrogen) to Hanks' Balanced Salt Solution (Invitrogen), followed by adjusting the pH to 7.4 with 1M NaOH (Nacalai Tesque). Next, the fluorescent dye solution and the diluent buffer solution were prepared. The fluorescent dye solution was prepared in accordance with the instruction manual attached to Fluo-4NW calcium assay kit (Invitrogen), followed by addition of bovine serum albumin (Sigma) to a final concentration of 0.1% (w/v). The diluent buffer solution was prepared by adding bovine serum albumin (Sigma) to the assay buffer to give a final concentration of 0.1% (w/v). After removing a medium supernatant from the cell culture plate incubated overnight, the fluorescent dye solution was added to the plate in a volume of 25 μl/well. The plate was incubated at 37° C. in an atmosphere of 5% CO2 for 90 minutes to promote the fluorescent dye uptake in the cell. Meanwhile, the test compounds (i.e., the compounds prepared in Examples) dissolved in dimethyl sulfoxide (DMSO; Nacalai Tesque) were diluted with the diluent buffer solution, to prepare each compound solution at each concentration. In addition, a palmitic acid solution was prepared as a positive control solution (hereinafter abbreviated as PosiC). A 40 μl aliquot of each sample solution prepared as above was added to each well of a 384-well polypropylene plate to prepare a compound plate. Finally, after the sufficient uptake of the fluorescent dye in the cell, the cell plate and the compound plate were set to FLIPR^TETRA. After the above pretreatment, the change in intracellular calcium level was measured by FLIPR^TETRA upon addition of 25 μl of each test compound solution at each concentration. The GPR40 agonist activity of each test compound at each concentration was determined as a relative activity level (% PosiC) with the intracellular calcium level induced by 80 μM palmitic acid (a GPR40 agonist) set to 100%. Next, each compound concentration corresponding to 50% PosiC was calculated based on the % PosiC value, to compare between agonist activities of the test compounds. In the tables, “++++” indicates 0.01 μM or more but less than 0.1 μM, “+++” indicates 0.1 μM or more but less than 1 μM, “++” indicates 1 μM or more but less than 10 μM, and “+” indicates 10 μM or more for 50% posiC value. In the tables, “N.T.” indicates “not tested”.

T1 sequence (O14842 whole entry): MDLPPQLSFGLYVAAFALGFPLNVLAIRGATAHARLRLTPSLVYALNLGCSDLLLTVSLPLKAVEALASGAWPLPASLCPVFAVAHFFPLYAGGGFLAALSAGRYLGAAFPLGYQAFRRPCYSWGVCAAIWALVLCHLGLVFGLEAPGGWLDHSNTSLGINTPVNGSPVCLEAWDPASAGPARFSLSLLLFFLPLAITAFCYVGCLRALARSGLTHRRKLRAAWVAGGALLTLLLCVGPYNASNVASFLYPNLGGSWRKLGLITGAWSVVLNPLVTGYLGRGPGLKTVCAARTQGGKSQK

| SMILES | EC50 [nM] |
| --- | --- |
| O=C(O)CCc1ccc(OCC2CCC3(CCCCC3)CC2)cc1 [Example 57, 3-[4-(spiro[5.5]undec-3-ylmethoxy)-phenyl]-propionic acid] | 1000 to 10000 |
| CC#C[C@@H](CC(=O)O)c1ccc(OC2CCC3(CCCCC3)CC2)cc1 [Example 63, (3S)-3-[4-(spiro[5.5]undec-3-yloxy)-phenyl]-hex-4-ynoic acid] | 100 to 1000 |
| CC#C[C@@H](CC(=O)O)c1ccc(OCC2=CCC3(CCCCC3)CC2)cc1 [Example 73, (3S)-3-[4-(spiro[5.5]undec-2-en-3-ylmethoxy)-phenyl]-hex-4-ynoic acid] | 100 to 1000 |
| CC#C[C@H](CC(=O)O)c1ccc(OCC2=CC3(CCCC3)CCC2)cc1 [Example 94, (R)-3-[4-(spiro[4.5]dec-6-en-7-ylmethoxy)-phenyl]-hex-4-ynoic acid L-lysine salt] | 1000 to 10000 |
| CC#C[C@@H](CC(=O)O)c1ccc(OCC2=C[C@@]3(CCC2)CCC(=O)C3)cc1 [Example 97, (3S)-3-[4-((5S)-2-oxo-spiro[4.5]dec-6-en-7-ylmethoxy)-phenyl]-hex-4-ynoic acid sodium salt] | 100 to 1000 |
| CC#C[C@@H](CC(=O)O)c1ccc(OCC2=C[C@]3(CCC2)CCC(=O)C3)cc1 [Example 103, (3S)-3-[4-((5R)-2-oxo-spiro[4.5]dec-6-en-7-ylmethoxy)-phenyl]-hex-4-ynoic acid sodium salt] | 100 to 1000 |
| CC#C[C@@H](CC(=O)O)c1ccc(OCC2=C[C@]3(CCC2)CC[C@@H](O)C3)cc1 [Example 105, (3S)-3-[4-((2R,5R)-2-hydroxy-spiro[4.5]dec-6-en-7-ylmethoxy)-phenyl]-hex-4-ynoic acid sodium salt] | 1000 to 10000 |
| CC#C[C@@H](CC(=O)O)c1ccc(OCC2=C[C@]3(CCC2)CC[C@H](O)C3)cc1 [Example 107, (3S)-3-[4-((2S,5R)-2-hydroxy-spiro[4.5]dec-6-en-7-ylmethoxy)-phenyl]-hex-4-ynoic acid sodium salt] | 100 to 1000 |
| O=C(O)CCc1ccc(OCC2=CC3(CCCC3)CCC2)cc1Cl [Example 108, 3-[2-chloro-4-(spiro[4.5]dec-6-en-7-ylmethoxy)-phenyl]-propionic acid] | 1000 to 10000 |
| COc1cc(CCC(=O)O)ccc1OCC1=CC2(CCCC2)CCC1 [Example 111, 3-[3-methoxy-4-(spiro[4.5]dec-6-en-7-ylmethoxy)-phenyl]-propionic acid] | ≥ 10000 |
| O=C(O)CCc1ccc(OCC2=CC3(CCCC3)CCC2)c(F)c1 [Example 112, 3-[3-fluoro-4-(spiro[4.5]dec-6-en-7-ylmethoxy)-phenyl]-propionic acid] | ≥ 10000 |
| CC#C[C@@H](CC(=O)O)c1ccc(OCC2=CCCC3(CCCCC3)C2)cc1 [Example 119, (S)-3-[4-(spiro[5.5]undec-2-en-2-ylmethoxy)-phenyl]-hex-4-ynoic acid L-lysine salt] | 100 to 1000 |

Next, values leading:

| EC50 [nM] | SMILES |
| --- | --- |
| 1000 to 10000 | CC#C[C@@H](CC(=O)O)c1ccc(OCC2=C[C@@]3(CCC2)CC[C@H](O)C3)cc1 [Example 99, (3S)-3-[4-((2S,5S)-2-hydroxy-spiro[4.5]dec-6-en-7-ylmethoxy)-phenyl]-hex-4-ynoic acid sodium salt] |
| 100 to 1000 | CC#C[C@@H](CC(=O)O)c1ccc(OCC2=C[C@@]3(CCC2)CC[C@@H](O)C3)cc1 [Example 101, (3S)-3-[4-((2R,5S)-2-hydroxy-spiro[4.5]dec-6-en-7-ylmethoxy)-phenyl]-hex-4-ynoic acid sodium salt] |
| 1000 to 10000 | Cc1cc(OCC2=CC3(CCCC3)CCC2)ccc1CCC(=O)O [Example 109, 3-[2-methyl-4-(spiro[4.5]dec-6-en-7-ylmethoxy)-phenyl]-propionic acid] |
| 100 to 1000 | O=C(O)CCc1ccc(OCC2=CC3(CCCC3)CCC2)c(O)c1 [Example 110, 3-[3-hydroxy-4-(spiro[4.5]dec-6-en-7-ylmethoxy)-phenyl]-propionic acid] |
| 1000 to 10000 | O=C(O)CCc1ccc(OCC2=CC3(CCC3)CC2)cc1 [Example 117, 3-[4-(spiro[3.4]oct-5-en-6-ylmethoxy)-phenyl]-propionic acid] |
